Series [1] has as its system human AML cell line, MV4-11. The series can be described thus: Anticancer activity in acute myeloid leukemia (AML) animal model. Type of series: in vivo, Balb/C nude mice. The following applies: intravenously once a day, five times per week for two weeks, MV4-11 implanted nude mice, Day 12 vs Day 1; for inhibition in vivo at 25 mg/kg: Mus musculus, iv, 288 h, read-out: Tumor growth Inhibition Rate. Here is the method:
Test materials were prepared in the form of prodrugs to increase the solubility of compounds of interest. A phosphate functional group which may be either a monosodium or disodium form was introduced as a prodrug substituent.
The human AML cell line, MV4-11, was purchased (ATCC, U.S.A.) and cultured at 37° C. under a 5% CO2 condition in Iscove's Modified Dulbecco's Medium (GIBCO, cat# 21056) supplemented with 10% fetal bovine serum (GIBCO, cat# 25030-081). Female Balb/C nude mice (OrientBio, Sungnam-city, Korea), 5-6 weeks old, were acclimated to the breeding room. Using a sterilized syringe, a mixture of 1:1 of MV4-11 cells: matrigel (v/v) was implanted in an amount of 5×10^6/mouse beneath the axilla of each of the mice. When tumor was formed 2 weeks after the implantation, the mice were divided into five (5) groups in such a manner that a minimum deviation with regard to tumor size and body weight was obtained among the groups. The test materials were dissolved in physiological saline and intravenously injected at a dose of 10 ml/kg once a day and five times per week for two weeks (administration days of test materials, D1˜D5, D8˜D12). For a control, only physiological saline was used. The tumor size was determined as calculated by the following equation: Long Axis×Short Axis×Short Axis/2. The Long and Short Axes of the tumor were measured in length using a digital caliper (Mitsutoyo, Japan). The anticancer activity of the test materials was numerated according to the following equation.
Tumor growth Inhibition Rate A (%)=100×[1−(b−a)/(Ref b−Ref a)] […]
a=mean tumor size of drug-administered group on Day 1 b=mean tumor size of drug-administered group on Day 12
Ref a=mean tumor size of the control on Day 1
Ref b=mean tumor size of the control on Day 12
When the mean tumor size of the drug-administered group on Day 12 was smaller than that of just before the administration of the test materials, it is indicated as Regression (>100%).

In the next series the target is T1, hERG (Homo sapiens, UniProt Q12809).
T1 construct: expressed in transfected cells; host or cells: HEK293
T1 sequence (Q12809 whole entry): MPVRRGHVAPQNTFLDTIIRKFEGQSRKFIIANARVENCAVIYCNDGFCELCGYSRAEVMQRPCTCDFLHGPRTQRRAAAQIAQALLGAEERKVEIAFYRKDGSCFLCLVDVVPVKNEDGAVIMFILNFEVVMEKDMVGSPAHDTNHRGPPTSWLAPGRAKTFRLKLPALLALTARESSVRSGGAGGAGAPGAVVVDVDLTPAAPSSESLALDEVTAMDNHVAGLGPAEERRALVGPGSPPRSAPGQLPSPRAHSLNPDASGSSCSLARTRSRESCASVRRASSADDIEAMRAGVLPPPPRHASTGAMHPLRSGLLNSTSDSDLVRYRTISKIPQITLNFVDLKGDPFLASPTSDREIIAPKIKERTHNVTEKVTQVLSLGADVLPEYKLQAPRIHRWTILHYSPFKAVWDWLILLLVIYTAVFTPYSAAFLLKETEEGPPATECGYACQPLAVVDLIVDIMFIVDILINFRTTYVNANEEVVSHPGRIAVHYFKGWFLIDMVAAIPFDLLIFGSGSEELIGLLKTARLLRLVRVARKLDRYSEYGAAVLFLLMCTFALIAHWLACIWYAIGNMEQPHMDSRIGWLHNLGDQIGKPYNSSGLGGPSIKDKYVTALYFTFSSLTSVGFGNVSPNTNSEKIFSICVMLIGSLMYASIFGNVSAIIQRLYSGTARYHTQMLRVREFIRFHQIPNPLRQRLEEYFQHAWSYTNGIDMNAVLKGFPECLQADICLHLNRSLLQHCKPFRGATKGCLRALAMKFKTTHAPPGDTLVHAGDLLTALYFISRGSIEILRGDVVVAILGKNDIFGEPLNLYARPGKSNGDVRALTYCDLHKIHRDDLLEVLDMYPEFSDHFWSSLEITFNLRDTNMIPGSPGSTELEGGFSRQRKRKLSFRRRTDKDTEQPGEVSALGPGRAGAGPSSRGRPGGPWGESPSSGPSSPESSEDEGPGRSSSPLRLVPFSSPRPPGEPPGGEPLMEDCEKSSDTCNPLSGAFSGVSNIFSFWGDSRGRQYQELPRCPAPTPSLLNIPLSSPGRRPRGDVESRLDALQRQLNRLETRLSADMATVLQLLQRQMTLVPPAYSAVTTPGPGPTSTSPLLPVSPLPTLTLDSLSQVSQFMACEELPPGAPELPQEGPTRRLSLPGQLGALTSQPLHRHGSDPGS
The series can be described thus: In vitro cardiotoxicity assay: inhibitory activity against hERG (whole-cell patch clamp). Type of series: cell-based. The following applies: hERG-transfected HEK293 cells, tail current of outward hERG K+ currents; read-out: Cardiotoxicity (hERG Inhibiting Activity Assay, IC50). Here is the method: HEK293 was transfected with hERG (human Ether-à-go-go Related Gene) cDNA for 48 hrs using Lipofectamine 2000 (Invitrogen, USA). The transfected HEK293 cells were cultured in Modified Dulbecco's Medium (MEM, Gibco, 1 L) supplemented with 10% FBS, sodium pyruvate (10 ml), penicillin/streptomycin (10 ml) and Zeocin (100 μg/ml, Invitrogen) at 37° C. under 5% CO2. After being detached from incubation vessels by trypsinization, the HEK293 cells were placed in a chamber for patch clamp recording. A whole-cell patch clamp method was used to record hERG K+ currents in HEK293 cells using the following intra/extracellular solutions.
The membrane potential was depolarized from −80 mV to +20 mV for 1,000 ms in a whole-cell patch clamp mode and then repolarized to −40 mV for 1,000 ms, during which the tail current of outward hERG K+ currents was recorded. In this regard, the concentrations of the compounds that are required for 50% inhibition of the current were represented as IC50.
The risk of cardiotoxicity has been raised in many drugs. Some of them were withdrawn from the market because they caused a sudden death due to the cardiotoxicity thereof. The cardiotoxicity of drugs is associated with the extension of QT intervals on electrocardiograms. Particularly, most of the drugs extending QT intervals are known to inhibit IKr channels (Bernard Fermini and Anthony A. Fossa, Nature Reviews Drug Discovery, 2003, 2, 439-447). […] In this example, the risk of cardiotoxicity was evaluated using human hERG channel-expressing mammal cells, which are internationally recognized as a system (ICH guideline, S7B, Step 4, 12, May, 2005). Although pharmaceutical activity of drug should be taken into consideration, a drug is evaluated as having a low cardiotoxicity risk when IC50 thereof is 10 μM or higher. […] Having higher IC50, compound A1 was evaluated to be safer than compound A, and compounds B1, B2 and B3 than compound B.

A short description of series [2]: pH of monosodium and disodium prodrug forms. The series is classed as physicochemical. The settings on record: prodrug form as a composition for I.V. injection. Here is the method:
(§1) This prodrug was prepared by adding sodium hydroxide to P2, which was synthesized according to Example 9. Both monosodium and disodium forms of the prodrug show a solubility of up to 400 mg/ml. Both forms have advantageous properties as a composition for I.V. injection in that a monosodium form has pH 4.45 and a disodium form has pH of 7.62.
In the graph, the horizontal axis represents the added amounts of sodium hydroxide. In the graph, the first and second points of inflection correspond to the time of production of monosodium and disodium forms, respectively.

The nature of series [3]: Solubility of monosodium and disodium prodrug forms. The series is classed as physicochemical. The following applies: aqueous medium; prodrug prepared by adding sodium hydroxide to P2. The method, then: The compounds were prepared in the form of prodrugs to improve the solubility thereof. Phosphate may be introduced as a possible prodrug substituent which can exist as in either monosodiumphosphate or disodiumphosphate form.
as §1

Each structure is given as a SMILES string. Some results are limits rather than exact numbers.

As a reminder, the IC50 is the midpoint of a concentration-inhibition curve. The solubility is the dissolved amount per volume that the medium holds.

For `C=CCN1CC(=O)N2[C@@H](Cc3ccc(OP(=O)(O)O)cc3)C(=O)N(Cc3cccc4c(C(=O)CC(C)(C)C)cn(CCC)c34)C[C@@H]2N1C(=O)NCc1ccccc1` [Compound B1], the inhibition in vivo at 25 mg/kg in series [1] (dose 25 mg/kg) was above 100%. In addition, at hERG, the IC50 turned out to be 18 µM. The corresponding values for `C=CCN1CC(=O)N2[C@@H](Cc3ccc(OP(=O)(O)O)cc3)C(=O)N(Cc3cccc4c(C(C)=O)c[nH]c34)C[C@@H]2N1C(=O)NCc1ccccc1` [Compound A] are 61% and 14 µM. For `Nc1ccn([C@@H]2O[C@H](CO)[C@@H](O)[C@@H]2O)c(=O)n1` [Ara-C, reference compound], the “Tumor growth Inhibition Rate” value in series [1] (dose 25 mg/kg, 25 mg/kg) was found to be 66%; in series [1] (dose 50 mg/kg) it was 77%. Take `C=CCN1CC(=O)N2[C@@H](Cc3ccc(OP(=O)(O)O)cc3)C(=O)N(Cc3cccc4c(C(C)=O)cn(CCC)c34)C[C@@H]2N1C(=O)NCc1ccccc1` [Compound A3]: in series [1] (dose 25 mg/kg), the inhibition in vivo at 25 mg/kg is above 100%.

`C=CCN1CC(=O)N2[C@@H](Cc3ccc(OP(=O)([O-])O)cc3)C(=O)N(Cc3cccc4c(C(C)=O)cn(C)c34)C[C@@H]2N1C(=O)NCc1ccccc1.[Na+]` [monosodium form, Sodium 4-(((6S,9AS)-1-(benzylcarbamoyl)-8-((3-acetyl-1-methyl-1H-indol-7-yl)methyl)-2-allyl-octahydro-4,7-dioxo-1H-pyrazino[2,1-C][1,2,4]triazin-6-yl)methyl)phenyl hydrogenphosphate]: in series [2], the pH came to 4.45. In series [3], the solubility is at most 400 mg/mL. `C=CCN1CC(=O)N2[C@@H](Cc3ccc(OP(=O)(O)O)cc3)C(=O)N(Cc3cccc4c(C(C)=O)cn(C)c34)C[C@@H]2N1C(=O)NCc1ccccc1` [Compound A2]: the inhibition in vivo at 25 mg/kg in series [1] (dose 25 mg/kg) is above 100%. As for `C=CCN1CC(=O)N2[C@@H](Cc3ccc(OP(=O)([O-])[O-])cc3)C(=O)N(Cc3cccc4c(C(C)=O)cn(C)c34)C[C@@H]2N1C(=O)NCc1ccccc1.[Na+].[Na+]` [disodium form], the pH in series [2] is 7.62. Besides, the solubility in series [3] was at most 400 mg/mL. Take `C=CCN1CC(=O)N2[C@@H](Cc3ccc(OP(=O)(O)O)cc3)C(=O)N(Cc3cccc4c(C(=O)CC)cn(C)c34)C[C@@H]2N1C(=O)NCc1ccccc1` [Compound A1]: the inhibition in vivo at 25 mg/kg in series [1] (dose 25 mg/kg) was above 100%. Besides, the IC50 on hERG was 80 µM. In the case of `C=CCN1CC(=O)N2[C@@H](Cc3ccc(OP(=O)(O)O)cc3)C(=O)N(Cc3cccc4c(C(=O)CC(C)(C)C)cn(C)c34)C[C@@H]2N1C(=O)NCc1ccccc1` [Compound B2], in series [1] (dose 25 mg/kg), the inhibition in vivo at 25 mg/kg was above 100%. For the same molecule, the IC50 at hERG is 25 µM. For the molecule `C=CCN1CC(=O)N2[C@@H](Cc3ccc(OP(=O)(O)O)cc3)C(=O)N(Cc3cccc4c(C(=O)C5CC5)cn(C)c34)C[C@@H]2N1C(=O)NCc1ccccc1` [Compound C1], the inhibition in vivo at 25 mg/kg in series [1] (dose 25 mg/kg) was above 100%. Take `C=CCN1CC(=O)N2[C@@H](Cc3ccc(OP(=O)(O)O)cc3)C(=O)N(Cc3cccc4c(C(=O)C5CC5)cn(CCCC)c34)C[C@@H]2N1C(=O)NCc1ccccc1` [Compound C3]: the inhibition in vivo at 25 mg/kg in series [1] (dose 25 mg/kg) is 70%. Regarding `C=CCN1CC(=O)N2[C@@H](Cc3ccc(OP(=O)(O)O)cc3)C(=O)N(Cc3cccc4c(C(=O)CC(C)(C)C)cn(CCCCCC)c34)C[C@@H]2N1C(=O)NCc1ccccc1` [Compound B3], the inhibition in vivo at 25 mg/kg in series [1] (dose 25 mg/kg) was determined as 80%. Also, the IC50 at hERG was determined as 20 µM. `C=CCN1CC(=O)N2[C@@H](Cc3ccc(OP(=O)(O)O)cc3)C(=O)N(Cc3cccc4c(C(=O)C5CC5)cn(CC)c34)C[C@@H]2N1C(=O)NCc1ccccc1` [Compound C2]: in series [1] (dose 25 mg/kg), the inhibition in vivo at 25 mg/kg is above 100%. Still for that read-out and setting: for `C=CCN1CC(=O)N2[C@@H](Cc3ccc(OP(=O)(O)O)cc3)C(=O)N(Cc3cccc4c(C(=O)C5CC5)c[nH]c34)C[C@@H]2N1C(=O)NCc1ccccc1` [Compound C] the value was 25%. Regarding `C=CCN1CC(=O)N2[C@@H](Cc3ccc(OP(=O)(O)O)cc3)C(=O)N(Cc3cccc4c(C(=O)CC(C)(C)C)c[nH]c34)C[C@@H]2N1C(=O)NCc1ccccc1` [Compound B], the inhibition in vivo at 25 mg/kg in series [1] (dose 25 mg/kg) is 49%. The IC50 at hERG turned out to be 1.6 µM.

Values taken from US20100267672A1, “NOVEL COMPOUNDS OF REVERSE-TURN MIMETICS, METHOD FOR MANUFACTURING THE SAME AND USE THEREOF” (Choongwae Pharma Corporation, priority 2009, published 2010).
